This experiment has as its system MV-4-11 cells. In words: Gene expression microarray analysis (Affymetrix PrimeView) and GSEA. To be noted: MV-4-11 cells, 48 hours. It is filed as cell-based, human. Set-up: RFU PODN (11730768_x_at) / Fold change /veh PODN (11730768_x_at) / RFU LINC00158 (11744669_a_at) / Fold change /veh LINC00158 (11744669_a_at) / RFU DUSP10 (11751237_a_at) / Fold change /veh DUSP10 (11751237_a_at) / RFU ID3 (11757404_x_at) / Fold change /veh ID3 (11757404_x_at) / RFU PLEKHG5 (11737974_s_at) / Fold change /veh PLEKHG5 (11737974_s_at) / RFU LRRC4B (11730491_at) / Fold change /veh LRRC4B (11730491_at) / RFU GIMAP4 (11747438_a_at) / Fold change /veh GIMAP4 (11747438_a_at) / RFU KRT8 (11758183_x_at) / Fold change /veh KRT8 (11758183_x_at) / RFU CNN1 (11734310_a_at) / Fold change /veh CNN1 (11734310_a_at) / RFU VPS37D (11726825_at) / Fold change /veh VPS37D (11726825_at) / RFU C10orf10 (11716522_x_at) / Fold change /veh C10orf10 (11716522_x_at) / RFU KIR2DL2 /// KIR2DL4 /// KIR2DL5A /// KIR2DL5B /// KIR2DS1 /// KIR2DS2 /// KIR2DS3 /// KIR2DS4 /// KIR3DL3 /// KIR3DL3 /// KIR3DS1 (11738374_at) / Fold change /veh KIR2DL2 /// KIR2DL4 /// KIR2DL5A /// KIR2DL5B /// KIR2DS1 /// KIR2DS2 /// KIR2DS3 /// KIR2DS4 /// KIR3DL3 /// KIR3DL3 /// KIR3DS1 (11738374_at) / RFU C1QL1 (11718748_at) / Fold change /veh C1QL1 (11718748_at) / RFU TMPRSS4 (11747572_a_at) / Fold change /veh TMPRSS4 (11747572_a_at) / RFU HAMP (11756126_x_at) / Fold change /veh HAMP (11756126_x_at) / RFU RNFT2 (11725882_a_at) / Fold change /veh RNFT2 (11725882_a_at) / RFU NR4A2 (11747474_a_at) / Fold change /veh NR4A2 (11747474_a_at) / RFU ABCC12 (11746883_a_at) / Fold change /veh ABCC12 (11746883_a_at) / RFU TMEM136 (11760407_x_at) / Fold change /veh TMEM136 (11760407_x_at) / RFU CLDN22 /// WWC2 (11732394_at) / Fold change /veh CLDN22 /// WWC2 (11732394_at) / RFU HLA-DPB1 (11760878_x_at) / Fold change /veh HLA-DPB1 (11760878_x_at) / RFU SPINT1 (11716480_a_at) / Fold change /veh SPINT1 (11716480_a_at) / RFU GAP43 (11754022_s_at) / Fold change /veh GAP43 (11754022_s_at) / RFU A4GNT (11735810_at) / Fold change /veh A4GNT (11735810_at) / RFU PRB3 (11715151_x_at) / Fold change /veh PRB3 (11715151_x_at) / RFU TUBB4B (11761932_at) / Fold change /veh TUBB4B (11761932_at) / RFU CAPN14 (11732068_a_at) / Fold change /veh CAPN14 (11732068_a_at) / RFU TMCC2 (11721928_a_at) / Fold change /veh TMCC2 (11721928_a_at) / RFU IRGQ (11745062_a_at) / Fold change /veh IRGQ (11745062_a_at) / RFU FAM174B (11720279_a_at) / Fold change /veh FAM174B (11720279_a_at) / RFU TMPRSS4 (11748680_a_at) / Fold change /veh TMPRSS4 (11748680_a_at) / RFU FAM212B (11763350_a_at) / Fold change /veh FAM212B (11763350_a_at) / RFU PLEKHG5 (11743358_a_at) / Fold change /veh PLEKHG5 (11743358_a_at) / RFU ZSCAN30 (11745921_a_at) / Fold change /veh ZSCAN30 (11745921_a_at) / RFU CMKLR1 (11741424_a_at) / Fold change /veh CMKLR1 (11741424_a_at) / RFU LOC101060620 /// MAPK8IP1 (11723275_at) / Fold change /veh LOC101060620 /// MAPK8IP1 (11723275_at) / RFU SPTSSB (11747773_x_at) / Fold change /veh SPTSSB (11747773_x_at) / RFU PRSS12 (11739890_at) / Fold change /veh PRSS12 (11739890_at) / RFU BIN1 (11741810_x_at) / Fold change /veh BIN1 (11741810_x_at) / RFU WNT11 (11732464_a_at) / Fold change /veh WNT11 (11732464_a_at) / RFU C10orf10 (11716521_a_at) / Fold change /veh C10orf10 (11716521_a_at) / RFU C5orf56 (11738089_at) / Fold change /veh C5orf56 (11738089_at) / RFU CYB561 (11721691_x_at) / Fold change /veh CYB561 (11721691_x_at) / RFU ANKRD19P (11752326_a_at) / Fold change /veh ANKRD19P (11752326_a_at) / RFU OR2T12 /// OR2T33 /// OR2T8 (11738714_s_at) / Fold change /veh OR2T12 /// OR2T33 /// OR2T8 (11738714_s_at) / RFU VCAN (11748164_a_at) / Fold change /veh VCAN (11748164_a_at) / RFU JSRP1 (11732532_at) / Fold change /veh JSRP1 (11732532_at) / RFU KRTAP10-11 (11738290_x_at) / Fold change /veh KRTAP10-11 (11738290_x_at) / RFU MYO3A (11730013_a_at) / Fold change /veh MYO3A (11730013_a_at) / RFU EBF3 (11725865_a_at) / Fold change /veh EBF3 (11725865_a_at) / RFU CAMK2N1 (11719241_x_at) / Fold change /veh CAMK2N1 (11719241_x_at) / RFU C5orf56 (11738088_a_at) / Fold change /veh C5orf56 (11738088_a_at) / RFU OLFML3 (11715873_a_at) / Fold change /veh OLFML3 (11715873_a_at) / RFU LOC100653217 /// NTM (11731650_a_at) / Fold change /veh LOC100653217 /// NTM (11731650_a_at) / RFU MAPK11 (11762145_a_at) / Fold change /veh MAPK11 (11762145_a_at) / RFU FIZ1 (11724087_x_at) / Fold change /veh FIZ1 (11724087_x_at) / RFU OASL (11726364_x_at) / Fold change /veh OASL (11726364_x_at) / RFU SOX15 (11748057_x_at) / Fold change /veh SOX15 (11748057_x_at) / RFU CD79A (11719716_a_at) / Fold change /veh CD79A (11719716_a_at) / RFU HIST1H1D (11736915_at) / Fold change /veh HIST1H1D (11736915_at) / RFU CASKIN2 (11723855_a_at) / Fold change /veh CASKIN2 (11723855_a_at) / RFU LOC730098 (11760151_x_at) / Fold change /veh LOC730098 (11760151_x_at) / RFU OR4N2 (11742367_at) / Fold change /veh OR4N2 (11742367_at) / RFU PRRT2 (11749266_a_at) / Fold change /veh PRRT2 (11749266_a_at) / RFU SNX32 (11753110_a_at) / Fold change /veh SNX32 (11753110_a_at) / RFU CDHR5 (11726645_a_at) / Fold change /veh CDHR5 (11726645_a_at) / RFU RCAN1 (11760418_a_at) / Fold change /veh RCAN1 (11760418_a_at) / RFU FAM167A (11723789_a_at) / Fold change /veh FAM167A (11723789_a_at) / RFU FAM26E (11764081_at) / Fold change /veh FAM26E (11764081_at) / RFU ISYNA1 (11749810_s_at) / Fold change /veh ISYNA1 (11749810_s_at) / RFU ACY1 (11761880_at) / Fold change /veh ACY1 (11761880_at) / RFU 11764098_at / Fold change /veh 11764098_at / RFU SAMD14 (11745864_x_at) / Fold change /veh SAMD14 (11745864_x_at) / RFU NPB (11741838_a_at) / Fold change /veh NPB (11741838_a_at) / RFU TMPRSS6 (11731388_a_at) / Fold change /veh TMPRSS6 (11731388_a_at) / RFU KRTAP10-2 (11738614_at) / Fold change /veh KRTAP10-2 (11738614_at) / RFU ARHGAP8 /// PRR5-ARHGAP8 (11727945_x_at) / Fold change /veh ARHGAP8 /// PRR5-ARHGAP8 (11727945_x_at) / RFU KRTAP5-7 /// NADSYN1 (11734609_at) / Fold change /veh KRTAP5-7 /// NADSYN1 (11734609_at) / RFU RASL12 (11751679_a_at) / Fold change /veh RASL12 (11751679_a_at) / RFU CDKN2B (11736163_a_at) / Fold change /veh CDKN2B (11736163_a_at) / RFU PRF1 (11729649_at) / Fold change /veh PRF1 (11729649_at) / RFU, ZNF638 /// ZNF638-IT1 / Fold change vs veh, ZNF638 /// ZNF638-IT1 / RFU, PANK3 / Fold change vs veh, PANK3 / RFU, SH3YL1 / Fold change vs veh, SH3YL1 / RFU, ZEB2 / Fold change vs veh, ZEB2 / RFU, NRIP1 / Fold change vs veh, NRIP1 / RFU, PTTG1IP / Fold change vs veh, PTTG1IP / RFU, CAPN2 / Fold change vs veh, CAPN2 / RFU, MED14 / Fold change vs veh, MED14 / RFU, SNORA58 / Fold change vs veh, SNORA58 / RFU, C1orf63 / Fold change vs veh, C1orf63 / RFU, LRRFIP1 / Fold change vs veh, LRRFIP1 / RFU, NDUFAF7 / Fold change vs veh, NDUFAF7 / RFU, SLC12A2 / Fold change vs veh, SLC12A2 / RFU, IBTK / Fold change vs veh, IBTK / RFU, ESF1 / Fold change vs veh, ESF1 / Fold change vs veh, TMEM50B / RFU, TAOK1 / Fold change vs veh, TAOK1 / RFU, ACBD3 / Fold change vs veh, ACBD3 / RFU, TMA16 / Fold change vs veh, TMA16 / RFU, RWDD3 / Fold change vs veh, RWDD3 / RFU, BCAT1 / Fold change vs veh, BCAT1 / RFU, EDEM3 / Fold change vs veh, EDEM3 / RFU, TMEM33 / Fold change vs veh, TMEM33 / RFU, WDR75 / Fold change vs veh, WDR75 / RFU, AHCTF1 / Fold change vs veh, AHCTF1 / RFU, TFRC / Fold change vs veh, TFRC / RFU, ZDHHC17 / Fold change vs veh, ZDHHC17 / RFU, NOM1 / Fold change vs veh, NOM1 / RFU, ARL8B / Fold change vs veh, ARL8B / RFU, ZBTB11 / Fold change vs veh, ZBTB11 / RFU, TAMM41 / Fold change vs veh, TAMM41 / RFU, KIAA1704 /// LOC100996395 / Fold change vs veh, KIAA1704 /// LOC100996395 / RFU, ING1 / Fold change vs veh, ING1 / RFU, TRMT61B / Fold change vs veh, TRMT61B / RFU, FUBP3 / Fold change vs veh, FUBP3 / RFU, TP53 / Fold change vs veh, TP53 / RFU, TNKS2 / Fold change vs veh, TNKS2 / RFU, ZFP14 / Fold change vs veh, ZFP14 / RFU, ACTR2 / Fold change vs veh, ACTR2 / RFU, PPP3R1 / Fold change vs veh, PPP3R1 / RFU, PIK3R1 / Fold change vs veh, PIK3R1 / RFU, HNRNPA1 / Fold change vs veh, HNRNPA1 / RFU, RNF170 / Fold change vs veh, RNF170 / RFU, ZNF28 / Fold change vs veh, ZNF28 / RFU, RNGTT / Fold change vs veh, RNGTT / RFU, OGT / Fold change vs veh, OGT / RFU, BRD1 / Fold change vs veh, BRD1 / RFU, MARS / Fold change vs veh, MARS / RFU, ZNF655 / Fold change vs veh, ZNF655 / RFU, FAHD1 / Fold change vs veh, FAHD1 / RFU, BDP1 / Fold change vs veh, BDP1 / RFU, LRRCC1 / Fold change vs veh, LRRCC1 / RFU, ARID1A / Fold change vs veh, ARID1A / RFU, ZNF146 / Fold change vs veh, ZNF146 / RFU, ZNF330 / Fold change vs veh, ZNF330 / RFU, GPN3 / Fold change vs veh, GPN3 / RFU, C9orf123 / Fold change vs veh, C9orf123 / RFU, N4BP2L2 / Fold change vs veh, N4BP2L2 / RFU, ARFIP1 / Fold change vs veh, ARFIP1 / RFU, FAM179B / Fold change vs veh, FAM179B / RFU, BCL10 / Fold change vs veh, BCL10 / RFU, UHRF1BP1L / Fold change vs veh, UHRF1BP1L / RFU, BET1 / Fold change vs veh, BET1 / RFU, CNOT2 / Fold change vs veh, CNOT2 / RFU, ZNF268 / Fold change vs veh, ZNF268 / Fold change vs veh, ZNF507 / RFU, DGCR2 / Fold change vs veh, DGCR2 / RFU, WDSUB1 / Fold change vs veh, WDSUB1 / Fold change vs veh, HSP90B1 /// MIR3652 / RFU, ADSS / Fold change vs veh, ADSS / RFU, GK / Fold change vs veh, GK / RFU, ZNF148 / Fold change vs veh, ZNF148 / RFU, TAF9 / Fold change vs veh, TAF9 / RFU, SLC1A5 / Fold change vs veh, SLC1A5 / RFU, SLMO2 / Fold change vs veh, SLMO2 / RFU, ABCC4 / Fold change vs veh, ABCC4 / RFU, LOC101060439 /// RAP1B / Fold change vs veh, LOC101060439 /// RAP1B / RFU, RFX7 / Fold change vs veh, RFX7 / RFU, GTPBP10 / Fold change vs veh, GTPBP10 / RFU, CNEP1R1 / Fold change vs veh, CNEP1R1 / RFU, BIVM-ERCC5 /// ERCC5 / Fold change vs veh, BIVM-ERCC5 /// ERCC5 / RFU, ILF3 / Fold change vs veh, ILF3 / RFU 11762660_at / Fold change /veh 11762660_at / RFU VCAN (11757783_s_at) / Fold change /veh VCAN (11757783_s_at) / RFU DDX43 (11728927_at) / Fold change /veh DDX43 (11728927_at) / RFU KRT8 (11758188_x_at) / Fold change /veh KRT8 (11758188_x_at) / RFU NKD1 (11759106_at) / Fold change /veh NKD1 (11759106_at) / RFU SRD5A1 (11742802_a_at) / Fold change /veh SRD5A1 (11742802_a_at) / RFU TPSAB1 /// TPSB2 (11721975_s_at) / Fold change /veh TPSAB1 /// TPSB2 (11721975_s_at) / RFU GSTM3 (11746129_a_at) / Fold change /veh GSTM3 (11746129_a_at) / RFU IL23R (11737362_x_at) / Fold change /veh IL23R (11737362_x_at) / RFU TMEM51 (11727254_a_at) / Fold change /veh TMEM51 (11727254_a_at) / RFU PIWIL2 (11732686_x_at) / Fold change /veh PIWIL2 (11732686_x_at) / RFU ORM1 (11744905_x_at) / Fold change /veh ORM1 (11744905_x_at) / RFU CCDC152 (11743942_at) / Fold change /veh CCDC152 (11743942_at) / RFU ECM1 (11717891_a_at) / Fold change /veh ECM1 (11717891_a_at) / RFU IL23R (11748794_a_at) / Fold change /veh IL23R (11748794_a_at) / RFU TNFAIP8L3 (11732012_x_at) / Fold change /veh TNFAIP8L3 (11732012_x_at) / RFU MBOAT4 (11741988_at) / Fold change /veh MBOAT4 (11741988_at) / RFU 11764193_at / Fold change /veh 11764193_at / RFU TMEM53 (11763286_at) / Fold change /veh TMEM53 (11763286_at) / RFU MAGEB2 (11727129_at) / Fold change /veh MAGEB2 (11727129_at) / RFU TMEM200A (11744735_a_at) / Fold change /veh TMEM200A (11744735_a_at) / RFU CCDC152 (11751479_a_at) / Fold change /veh CCDC152 (11751479_a_at) / RFU FAM211A (11726209_a_at) / Fold change /veh FAM211A (11726209_a_at) / RFU RGS16 (11746705_a_at) / Fold change /veh RGS16 (11746705_a_at) / RFU VCAN (11755009_s_at) / Fold change /veh VCAN (11755009_s_at) / RFU RHOB (11743442_s_at) / Fold change /veh RHOB (11743442_s_at) / RFU RGS16 (11720943_a_at) / Fold change /veh RGS16 (11720943_a_at) / RFU RGS16 (11720944_at) / Fold change /veh RGS16 (11720944_at) / RFU, VPS4B / Fold change vs veh, VPS4B / RFU, CREB1 / Fold change vs veh, CREB1 / RFU, DNAJC13 / Fold change vs veh, DNAJC13 / RFU, GNAQ / Fold change vs veh, GNAQ / RFU, CDK5R1 / Fold change vs veh, CDK5R1 / RFU, ZRANB3 / Fold change vs veh, ZRANB3 / RFU, CUL4A / Fold change vs veh, CUL4A / RFU, CCNY / Fold change vs veh, CCNY / RFU, UFL1 / Fold change vs veh, UFL1 / RFU, COG3 / Fold change vs veh, COG3 / RFU, DIAPH2 / Fold change vs veh, DIAPH2 / RFU, SKA2 / Fold change vs veh, SKA2 / RFU, AFF3 / Fold change vs veh, AFF3 / RFU, LMF1 / Fold change vs veh, LMF1 / RFU, IPO11 / Fold change vs veh, IPO11 / RFU, DFFB / Fold change vs veh, DFFB / RFU, FOXP1 / Fold change vs veh, FOXP1 / RFU, CARD8 / Fold change vs veh, CARD8 / RFU, STRN3 / Fold change vs veh, STRN3 / RFU, ADK / Fold change vs veh, ADK / RFU, RASSF2 / Fold change vs veh, RASSF2 / RFU, WIPF1 / Fold change vs veh, WIPF1 / RFU, LARP1B / Fold change vs veh, LARP1B / RFU, RASA1 / Fold change vs veh, RASA1 / RFU, RB1 / Fold change vs veh, RB1 / RFU, PPFIA1 / Fold change vs veh, PPFIA1 / RFU, MAT2A / Fold change vs veh, MAT2A / RFU, CCT5 / Fold change vs veh, CCT5 / RFU, WDR92 / Fold change vs veh, WDR92 / RFU, CUX1 / Fold change vs veh, CUX1 / RFU, TTC7A / Fold change vs veh, TTC7A / RFU, TMEM135 / Fold change vs veh, TMEM135 / RFU, DEPTOR / Fold change vs veh, DEPTOR / RFU, CPM / Fold change vs veh, CPM / RFU, DNAJB6 / Fold change vs veh, DNAJB6 / RFU, CACNA2D3 / Fold change vs veh, CACNA2D3 / RFU, DTX4 / Fold change vs veh, DTX4 / RFU, TFCP2 / Fold change vs veh, TFCP2 / RFU, GMCL1 /// GMCL1P1 / Fold change vs veh, GMCL1 /// GMCL1P1 / RFU, AEBP2 / Fold change vs veh, AEBP2 / RFU, SNHG1 /// SNORD22 /// SNORD25 /// SNORD26 /// SNORD27 /// SNORD28 /// SNORD29 /// SNORD31 / Fold change vs veh, SNHG1 /// SNORD22 /// SNORD25 /// SNORD26 /// SNORD27 /// SNORD28 /// SNORD29 /// SNORD31 / Fold change (Aza/veh), C12orf56 (ProbeSet 11735607_a_at) / Fold change (ACY-1035/veh), C12orf56 (ProbeSet 11735607_a_at) / Fold change (Aza/veh), FGFR1OP (ProbeSet 11751329_s_at) / Fold change (ACY-1035/veh), FGFR1OP (ProbeSet 11751329_s_at) / Fold change (Aza/veh), VPS36 (ProbeSet 11739960_a_at) / Fold change (ACY-1035/veh), VPS36 (ProbeSet 11739960_a_at) / RFU SYPL1 (11715823_x_at) / Fold change /veh SYPL1 (11715823_x_at) / RFU IGFBP7 (11715501_s_at) / Fold change /veh IGFBP7 (11715501_s_at) / RFU REEP3 (11722064_at) / Fold change /veh REEP3 (11722064_at) / RFU IGLL1 (11728026_x_at) / Fold change /veh IGLL1 (11728026_x_at): dose or concentration left out as unconfirmed.

With `Nc1ncn([C@@H]2O[C@H](CO)[C@@H](O)[C@H]2O)c(=O)n1` [azacitidine], the “Fold change /veh ISYNA1 (11749810_s_at)” value is given as 1.06.
